In patent US10433556B2, “Treatment and/or prophylaxis of storage diseases of harvested material” (priority 2011, dated 2019):

Key:
Helminthosporium solani [1] = test: Field trial 2010/2011 Netherlands: rate of germination of the spores on the potato tuber; type: in vivo; details: use of Imazalil; FIG. 3 fourth column
Procedure: (§1) For the treatment of the seed potato at or before the laying into the ground soil Proradix is used as a liquid mordant [Proradix WG (LF 4816-00); Sourcon […] GmbH & Co. KG, Tübingen, Germany], according to the information of the manufacturer in a concentration of 60 g/ha via the spraying method by using a ULV spraying device. Before the storage of the potatoes 20 g of Proradix WG is dissolved in a maximum of 2 l of water per barrel. The application onto the potatoes is also effected by means of a ULV spraying device. The laying of the potato and, if applicable, the treatment with Proradix and/or Imazalil is carried out in springtime and the harvest and storage and, if applicable, the treatment with Proradix and/or Imazalil is carried out in fall of the same year. In a further field trial conducted in the years of 2010/2011 in the Netherlands according to the EPPO guidelines the influence of Proradix in comparison to the chemical standard of Imazalil on the production of spores of the fungal pathogen of Helminthosporium solani, the initiator of the silver scurf, and the rate of germination of the spores on the potato tuber was examined.

Helminthosporium solani [2] = test: Field trial 2010/2011 Netherlands: production of spores of the silver scurf pathogen on the potato tuber; type: in vivo; details: treatment of the potato before the storage; FIG. 2
Procedure: as §1

birds and ducks = details: in vivo; cited from earlier work
[3] = tested on: silver scurf on potato tubers; test: Field trial 2010/2011 Germany: Proradix in combination with Imazalil, affection by silver scurf after storage; type: in vivo, Helminthosporium solani; details: exclusively Imazalil at the laying and the storage; vs untreated potatoes; FIG. 5 third column
Procedure: For the treatment of the seed potato at or before the laying into the ground soil Proradix is used as a liquid mordant [Proradix WG (LF 4816-00); Sourcon […] GmbH & Co. KG, Tübingen, Germany], according to the information of the manufacturer in a concentration of 60 g/ha via the spraying method by using a ULV spraying device. Before the storage of the potatoes 20 g of Proradix WG is dissolved in a maximum of 2 l of water per barrel. The application onto the potatoes is also effected by means of a ULV spraying device. The laying of the potato and, if applicable, the treatment with Proradix and/or Imazalil is carried out in springtime and the harvest and storage and, if applicable, the treatment with Proradix and/or Imazalil is carried out in fall of the same year. In a field trial conducted in the years of 2010 and 2011 in Germany according to the EPPO guidelines it was examined in detail, whether Proradix can also be effectively used in combination with the chemical of Imazalil. For this purpose a part of the potatoes remain untreated, a part was treated with the chemical of Imazalil at the laying, and a part was treated at the laying and also before the storage with the chemical of Imazalil, and yet another part was treated at the laying with Imazalil and before the storage with Proradix.

fish = details: in vivo; cited from earlier work

In the case of C=CCOC(Cn1ccnc1)c1ccc(Cl)cc1Cl (centres unmarked) [Imazalil], the “share of spores able to germinate” value (Helminthosporium solani [1]) is given as “half”, the formation of spores (Helminthosporium solani [2]) is given as “comparable” and the “effect on birds and ducks” value (birds and ducks) is given as “causes damages”. For the same compound, the “affection by silver scurf after the storage” value [3] was “significantly diminished reduction” and the toxicity for fish (fish) was “toxic”.
